Experiments:
[1] = acute toxicity, intravenous injection, rats; format: in vivo; settings: Wistar rats
[2] = acute toxicity, intravenous injection, mice; format: in vivo; settings: Swiss white mice
Gram-positive bacteria = assay: minimum inhibitory concentration (MIC) determination; format: cell-based; settings: wide range of Gram-positive bacteria including enterococci and resistant clinical isolates; MIC values are in Table II (image)
[3] = test system: Staphylococcus aureus E 710 (Methicillin resistant); assay: in vivo antibacterial protection study in experimentally infected mice; settings: laboratory mice experimentally infected with Staphylococcus aureus E 710 (Methicillin resistant)
Excerpt: "In vivo" antibacterial protection studies

[4] = acute toxicity, subcutaneous injection; format: in vivo; settings: 1000 mg/kg and 2000 mg/kg, injected subcutaneously, Swiss mice
Excerpt: The acute toxicity of the compound in laboratory animals has been evaluated.

[5] = i.v., end of the 14 day follow-up period

Row | Compound | macroscopic examination on dissection [1, 5] | LD₅₀ ([1]; intravenous injection (i.v.)) | macroscopic examination on dissection [2, 5] | LD₅₀ ([2]; intravenous injection (i.v.), 20160 min) | activity against Gram-positive bacteria (Gram-positive bacteria) | activity in the in vivo system [3] | acute toxicity [4] | finding at the site of injection [4]
1 | Decaplanin | no morphological changes | greater than 2,500 mg/kg | no morphological changes | greater than 3000 mg/kg | displays activity | good activity | no acute toxicity was observed | no abnormalities were observed
2 | CN[C@H](CC(C)C)C(=O)N[C@H]1C(=O)N[C@@H](CC(N)=O)C(=O)N[C@H]2C(=O)N[C@H]3C(=O)N[C@H](C(=O)N[C@H](C(=O)O)c4cc(O)cc(O)c4-c4cc3ccc4O)[C@H](O)c3ccc(c(Cl)c3)Oc3cc2cc(c3O[C@@H]2O[C@H](CO)[C@@H](O)[C@H](O)[C@H]2O[C@H]2C[C@](C)(N)[C@H](O)[C@H](C)O2)Oc2ccc(cc2Cl)[C@H]1O [vancomycin, reference compound] |  |  |  |  |  |  |  | tissue necrosis was seen at the site of injection

Source: patent EP0356894A1, “A novel glycopeptide antibiotic Decaplanin, a process for its production and its use as medicament” (priority 1988, dated 1990)
